# Read-outs that look alike come from different tables or passages of the source.
# Columns and labels:
# [1] = formulations containing Piperine compared with those which did not contain Piperine; cited from earlier work
# [2] = tested on: acetic acid induced writhing; conditions: mice, n = 8, Nimesulide 10mg/kg
# Procedure: Pharmacokinetic studies were also performed in rats. […] The study design for acetic acid induced writhing in mice was as follows : Table II
# [3] = Plasma levels of Nimesulide in rats after oral administration of the compositions (Experiment I, HPLC); type: in vivo, albino rats
# Procedure: The rats were housed 5 per cage with food and water provided ad libidum. On the day of experimentation the rats were randomised into ten batches of 5 rats each. Four groups were formed. […] Group II consisted of four batches of five rats each. […] Rats of batch I from Group II were sacrificed 60 minutes post treatment after Chloroform anaesthesia. […] Blood was collected from the rats from the ventricle into heparinised tubes. Group III consisted of one batch of 5 rats, which received only Piperine at a dose level of 1.0mg/kg body wt. […] Blood was collected from the rats from the ventricle into heparinised tubes. Group IV consisted of 4 batches of 5 rats each. […] Rats of batch 1 from Group IV were sacrificed 60 minutes post treatment after Chloroform anaesthesia. […] Blood was collected from the rats from the ventricle into heparinised tubes. The blood samples were centrifuged at 3700 rpm and the plasma separated. […] Extracted benzene was evaporated in a water bath at 95°C and reconstituted with 100 µl of mobile phase and 10 µl was injected into the HPLC. Waters HPLC fitted with C18 µ Bondapack was used along with Waters UV-Vis detector (254nm). […] Unpaired student T test was applied on the data. Level of significance was fixed at p < 0.05.
# plasma proteins = conditions: cited from earlier work
# [4] = rats, oral, Nimesulide 10 mg/kg (with Piperine 10mg/kg in the combination), n = 5
# Procedure: The single test point pharmacokinetic studies were performed in two groups of rats. […] Rats were sacrificed at 90 minutes. post treatment and blood samples were analysed by HPLC.
# [5] = in vivo; cited from earlier work
# [6] = cited from earlier work
# [7] = cited from earlier work; remark: listed apart in the source
structure (smiles),measurement,setting,value
NC(=O)c1cnccn1 [Pyrazinamide],mean increase in AUC,[1],36%
NNC(=O)c1ccncc1 [Isoniazid],mean increase in AUC,[1],131%
CO[C@H]1/C=C/O[C@@]2(C)Oc3c(C)c(O)c4c(O)c(c(/C=N/N5CCN(C)CC5)c(O)c4c3C2=O)NC(=O)/C(C)=C\C=C\[C@H](C)[C@H](O)[C@@H](C)[C@@H](O)[C@@H](C)[C@H](OC(C)=O)[C@@H]1C [Rifampicin],mean increase in AUC,[1],37.6%
"CS(=O)(=O)Nc1ccc([N+](=O)[O-])cc1Oc1ccccc1 [Nimesulide, N-(4-nitro, 2-phenoxyphenyl) methanesulfonamide]",% PROTECTION,[2],54%
same,Concentration of the drug in plasma,"[3]; Nimesulide alone 1.8 mg/kg, 240 min post treatment",4.6 ± 1.4 kg/mL
same,Plasma levels of Nimesulide,"[3]; oral suspension, Nimesulide 1.8 mg/kg (with Piperine 1.0 mg/kg in the combination), 60 min. post treatment",5800 ± 1700 µg/mL
same,Plasma levels of Nimesulide,"[3]; oral suspension, Nimesulide 1.8 mg/kg (with Piperine 1.0 mg/kg in the combination), 120 min. post treatment",7900 ± 2300 µg/mL
same,Plasma levels of Nimesulide,"[3]; oral suspension, Nimesulide 1.8 mg/kg (with Piperine 1.0 mg/kg in the combination), 240 min. post treatment",4600 ± 1400 µg/mL
same,Plasma levels of Nimesulide,"[3]; oral suspension, Nimesulide 1.8 mg/kg (with Piperine 1.0 mg/kg in the combination), 360 min. post treatment",2200 ± 1100 µg/mL
same,bound to plasma proteins,plasma proteins,99%
same,Plasma concentration (90 min post treatment),[4],8818 µg/mL
same,dose excreted unchanged in the urine,[5],1-3%
"O=C(/C=C/C=C/c1ccc2c(c1)OCO2)N1CCCCC1 [Piperine, (E, E) 1-[5-(1,3-benzodioxyl-5-yl)-1-oxo-2,4-pentadenyl] piperidine]",pKa,[6],12.22
same,Plasma levels of Nimesulide,"[3]; only Piperine 1.0 mg/kg, no Nimesulide, column 120 min.",Nil
same,solubility,"[7]; in benzene, chloroform, ether, ethyl acetate, dichloromethane, alcohol, acetic acid",soluble
same,solubility,"[7]; in water, pet. ether",insoluble
